The NIST ThermoML archive (doi:10.1016/j.jct.2015.08.013)

Assay: xn = mol fraction of the nth substance listed
Conditions: 100 kPa, Liquid; for mass density: Vibrating tube method; for viscosity: Capillary tube (Ostwald / Ubbelohde) method

O=C1CCCO1 [γ-butyrolactone] + CN1CCCC1=O
Conditions | mass density [kg/m3] | viscosity [mPa·s]
293.15 K, x2 = 0 | 1129.2 | –
293.15 K, x2 = 0.1011 | 1117.01 | –
293.15 K, x2 = 0.1484 | 1111.57 | –
293.15 K, x2 = 0.2506 | 1100.29 | –
293.15 K, x2 = 0.3027 | 1094.76 | –
293.15 K, x2 = 0.4002 | 1084.79 | –
293.15 K, x2 = 0.4953 | 1075.51 | –
293.15 K, x2 = 0.5983 | 1065.98 | –
293.15 K, x2 = 0.6977 | 1057.25 | –
293.15 K, x2 = 0.8022 | 1048.51 | –
293.15 K, x2 = 0.851 | 1044.56 | –
293.15 K, x2 = 0.9418 | 1037.29 | –
298.15 K, x2 = 0 | 1124.26 | 1.73
298.15 K, x2 = 0.1002 | – | 1.719
298.15 K, x2 = 0.1011 | 1112.14 | –
298.15 K, x2 = 0.1484 | 1106.72 | –
298.15 K, x2 = 0.2002 | – | 1.71
298.15 K, x2 = 0.2506 | 1095.51 | –
298.15 K, x2 = 0.3027 | 1090 | –
298.15 K, x2 = 0.3078 | – | 1.701
298.15 K, x2 = 0.3999 | – | 1.694
298.15 K, x2 = 0.4002 | 1080.08 | –
298.15 K, x2 = 0.4953 | 1070.84 | –
298.15 K, x2 = 0.4998 | – | 1.689
298.15 K, x2 = 0.5983 | 1061.35 | –
298.15 K, x2 = 0.6003 | – | 1.685
298.15 K, x2 = 0.6977 | 1052.68 | –
298.15 K, x2 = 0.7002 | – | 1.682
298.15 K, x2 = 0.8011 | – | 1.679
298.15 K, x2 = 0.8022 | 1043.99 | –
298.15 K, x2 = 0.851 | 1040.04 | –
298.15 K, x2 = 0.8998 | – | 1.678
298.15 K, x2 = 0.9418 | 1032.8 | –
303.15 K, x2 = 0 | 1119.33 | 1.63
303.15 K, x2 = 0.1002 | – | 1.614
303.15 K, x2 = 0.1011 | 1107.27 | –
303.15 K, x2 = 0.1484 | 1101.88 | –
303.15 K, x2 = 0.2002 | – | 1.601
303.15 K, x2 = 0.2506 | 1090.7 | –
303.15 K, x2 = 0.3027 | 1085.22 | –
303.15 K, x2 = 0.3078 | – | 1.587
303.15 K, x2 = 0.3999 | – | 1.577
303.15 K, x2 = 0.4002 | 1075.32 | –
303.15 K, x2 = 0.4953 | 1066.12 | –
303.15 K, x2 = 0.4998 | – | 1.568
303.15 K, x2 = 0.5983 | 1056.67 | –
303.15 K, x2 = 0.6003 | – | 1.559
303.15 K, x2 = 0.6977 | 1048.03 | –
303.15 K, x2 = 0.7002 | – | 1.552
303.15 K, x2 = 0.8011 | – | 1.546
303.15 K, x2 = 0.8022 | 1039.38 | –
303.15 K, x2 = 0.851 | 1035.46 | –
303.15 K, x2 = 0.8998 | – | 1.541
303.15 K, x2 = 0.9418 | 1028.25 | –
308.15 K, x2 = 0 | 1114.31 | 1.52
308.15 K, x2 = 0.1002 | – | 1.504
308.15 K, x2 = 0.1011 | 1102.38 | –
308.15 K, x2 = 0.1484 | 1097.05 | –
308.15 K, x2 = 0.2002 | – | 1.49
308.15 K, x2 = 0.2506 | 1085.98 | –
308.15 K, x2 = 0.3027 | 1080.55 | –
308.15 K, x2 = 0.3078 | – | 1.477
308.15 K, x2 = 0.3999 | – | 1.468
308.15 K, x2 = 0.4002 | 1070.75 | –
308.15 K, x2 = 0.4953 | 1061.64 | –
308.15 K, x2 = 0.4998 | – | 1.458
308.15 K, x2 = 0.5983 | 1052.28 | –
308.15 K, x2 = 0.6003 | – | 1.45
308.15 K, x2 = 0.6977 | 1043.71 | –
308.15 K, x2 = 0.7002 | – | 1.443
308.15 K, x2 = 0.8011 | – | 1.437
308.15 K, x2 = 0.8022 | 1035.14 | –
308.15 K, x2 = 0.851 | 1031.26 | –
308.15 K, x2 = 0.8998 | – | 1.433
308.15 K, x2 = 0.9418 | 1024.11 | –
313.15 K, x2 = 0 | 1109.23 | 1.42
313.15 K, x2 = 0.1002 | – | 1.404
313.15 K, x2 = 0.1011 | 1097.36 | –
313.15 K, x2 = 0.1484 | 1092.04 | –
313.15 K, x2 = 0.2002 | – | 1.391
313.15 K, x2 = 0.2506 | 1081.02 | –
313.15 K, x2 = 0.3027 | 1075.61 | –
313.15 K, x2 = 0.3078 | – | 1.379
313.15 K, x2 = 0.3999 | – | 1.37
313.15 K, x2 = 0.4002 | 1065.84 | –
313.15 K, x2 = 0.4953 | 1056.76 | –
313.15 K, x2 = 0.4998 | – | 1.361
313.15 K, x2 = 0.5983 | 1047.44 | –
313.15 K, x2 = 0.6003 | – | 1.354
313.15 K, x2 = 0.6977 | 1038.91 | –
313.15 K, x2 = 0.7002 | – | 1.348
313.15 K, x2 = 0.8011 | – | 1.344
313.15 K, x2 = 0.8022 | 1030.36 | –
313.15 K, x2 = 0.851 | 1026.5 | –
313.15 K, x2 = 0.8998 | – | 1.34
313.15 K, x2 = 0.9418 | 1019.36 | –
318.15 K, x2 = 0 | 1104.1 | 1.35
318.15 K, x2 = 0.1002 | – | 1.331
318.15 K, x2 = 0.1011 | 1092.31 | –
318.15 K, x2 = 0.1484 | 1087.03 | –
318.15 K, x2 = 0.2002 | – | 1.316
318.15 K, x2 = 0.2506 | 1076.08 | –
318.15 K, x2 = 0.3027 | 1070.71 | –
318.15 K, x2 = 0.3078 | – | 1.302
318.15 K, x2 = 0.3999 | – | 1.291
318.15 K, x2 = 0.4002 | 1061.01 | –
318.15 K, x2 = 0.4953 | 1051.99 | –
318.15 K, x2 = 0.4998 | – | 1.28
318.15 K, x2 = 0.5983 | 1042.73 | –
318.15 K, x2 = 0.6003 | – | 1.271
318.15 K, x2 = 0.6977 | 1034.27 | –
318.15 K, x2 = 0.7002 | – | 1.263
318.15 K, x2 = 0.8011 | – | 1.256
318.15 K, x2 = 0.8022 | 1025.76 | –
318.15 K, x2 = 0.851 | 1021.91 | –
318.15 K, x2 = 0.8998 | – | 1.251
318.15 K, x2 = 0.9418 | 1014.8 | –
323.15 K, x2 = 0 | 1098.88 | 1.3
323.15 K, x2 = 0.1002 | – | 1.278
323.15 K, x2 = 0.1011 | 1087.72 | –
323.15 K, x2 = 0.1484 | 1082 | –
323.15 K, x2 = 0.2002 | – | 1.261
323.15 K, x2 = 0.2506 | 1071.16 | –
323.15 K, x2 = 0.3027 | 1065.83 | –
323.15 K, x2 = 0.3078 | – | 1.245
323.15 K, x2 = 0.3999 | – | 1.232
323.15 K, x2 = 0.4002 | 1056.23 | –
323.15 K, x2 = 0.4953 | 1047.31 | –
323.15 K, x2 = 0.4998 | – | 1.219
323.15 K, x2 = 0.5983 | 1038.15 | –
323.15 K, x2 = 0.6003 | – | 1.208
323.15 K, x2 = 0.6977 | 1029.76 | –
323.15 K, x2 = 0.7002 | – | 1.198
323.15 K, x2 = 0.8011 | – | 1.189
323.15 K, x2 = 0.8022 | 1021.34 | –
323.15 K, x2 = 0.851 | 1017.51 | –
323.15 K, x2 = 0.8998 | – | 1.182
323.15 K, x2 = 0.9418 | 1010.46 | –
